# Assay results published in patent US9937235B2, “Lipidated peptides as anti-obesity agents” (USTAV ORGANICKE CHEMIE A BIOCHEMIE AKADEMIE VED CR, V.V.I, priority 2012, dated 2018).
# Where a SMILES comes first, the peptide text is derived from it. [ ]: non-standard residue; d: D form. The star is where a group is joined. 1Nal = N[C@@H](Cc1cccc2ccccc12)C(=O)O; Lauroyl = CCCCCCCCCCCC(=O)*; Nle = CCCC[C@H](N)C(=O)O; Dap = NC[C@H](N)C(=O)O
# What was measured:
# [1] = tested on: MAPK/ERK1/2 signaling pathway in RC-4B/C cells; experiment: MAPK/ERK1/2 signaling in RC-4B/C cells (Western blot); assay type: cell-based, rat; conditions: 10^−6 mol·l^−1, 5 minute incubation
# Method: RC-4B/C cells, which were used to determine if lipidated PrRP20 analogs are able to initiate the MAPK/ERK1/2 signaling pathway, were grown in 6-well plates up to the optimal density of […]. Seventeen hours before sample harvest, the growth medium was replaced by a serum-free medium lacking epidermal growth factor (EGF). The respective lipidated PrRP analog was added to each well in the final concentration of 10^−6 mol·l^−1. After a 5 minute incubation at 37° C., the plate was placed on ice and each well was rinsed three times with PBS pH 7.4 (137 mmol·l^−1 NaCl, 2.7 mmol·l^−1 KCl, 8 mmol·l^−1 Na2HPO4.2H2O a 1.76 mmol·l^−1 KH2PO4) and cooled to 4° C. […] Samples were collected in at least three independent experiments.
# To determine if the lipidated PrRP20 analogs initiated the MAPK/ERK1/2 signaling pathway, Western blot analysis was used. Electrophoresis was performed on 5%/12% polyacrylamide gel in the presence of SDS (SDS-PAGE) on the instrument MiniProtean 3 (BioRad, Herkules, Calif., USA). Samples that were loaded on the gel were first disintegrated by ultrasound, then heated at 100° C. for 2 minutes, and centrifuged for 5 minutes at 500×g at room temperature. […] Electrophoresis was performed at a constant voltage of 100 V for 10 minutes, or for 60 minutes at 150 V.
# To show the presence of phosphorylated proteins in the samples, the proteins from the SDS-PAGE gel were transferred to the Immobilon™-P PVDF (polyvinylidene difluoride) membrane (Sigma-Aldrich, USA). The transfer was performed in blotting buffer at pH 8.3 (25 mmol·l^−1 Tris, 192 mmol·l^−1 glycine and 20% methanol) for 20 hours at 4° C. at a constant voltage of 30 V.
# After the protein transfer to the PVDF membrane, the membranes were washed for 5 minutes in TBS washing buffer (20 mmol·l^−1 Tris, 140 mmol·l^−1 NaCl and 0.1% Tween-20) and then incubated for 1 hour in blocking buffer (TBS with 5% non-fat milk powder and 5 mmol·l^−1 Na3VO4 and 50 mmol·l^−1 NaF) at room temperature. Further, the membranes were washed three times for 5 minutes using the TBS washing buffer. The membranes were then incubated with the primary antibody against phospho-p44/42 MAPK(Thr202/Tyr204) (Cell Signaling Technology, Beverly, USA) which was diluted in blocking buffer at 1:1000. After the next three washes with the TBS washing buffer for 5 minutes, the membranes were incubated for 1 hour with rabbit secondary antibody labeled with peroxidase (Sigma, St. Louis, USA) which was diluted in blocking buffer at 1:12,000.
# The membranes were then washed three times in TBS washing buffer for 5 minutes and then the solution Femto (Pierce SuperSignal, Thermo Fisher Scientific, Rockford, Ill., USA) was applied. The induced chemiluminiscence was detected by a CCD camera (LAS 3000, Fuji Photo Film GmBH, Düsseldorf, Germany).
# To assess the initiation of signaling pathways, a densitometric analysis using the program Quantity One (BioRad, Hercules, Calif., USA) was used. For statistical evaluation of the statistically significant response of the cellular signaling, one-way ANOVA with subsequent Dunnett post-hoc test was used. Data was statistically significant at P<0.05.
# fasted C57BL/6 mice [2] = experiment: Food intake in fasted mice after SC administration; assay type: in vivo, mouse; conditions: SC administration; for % control: food intake vs saline
# Method in brief: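 Male C57BL/6 mice, food-deprived 17 h, received saline, PrRP or lipidated analogs either SC at 1-10 mg/kg or ICV into the third ventricle at 4 nmol/mouse.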
# [3] = target: T1, rat PrRP receptor (GPR10) in RC-4B/C cells (Rattus norvegicus, UniProt Q64121); experiment: Competitive binding to rat pituitary RC-4B/C cells; conditions: ^125I-rat PrRP31, RC-4B/C cells
# T1 construct: host or cells: RC-4B/C rat pituitary cell line
# T1 sequence (Q64121 1-370): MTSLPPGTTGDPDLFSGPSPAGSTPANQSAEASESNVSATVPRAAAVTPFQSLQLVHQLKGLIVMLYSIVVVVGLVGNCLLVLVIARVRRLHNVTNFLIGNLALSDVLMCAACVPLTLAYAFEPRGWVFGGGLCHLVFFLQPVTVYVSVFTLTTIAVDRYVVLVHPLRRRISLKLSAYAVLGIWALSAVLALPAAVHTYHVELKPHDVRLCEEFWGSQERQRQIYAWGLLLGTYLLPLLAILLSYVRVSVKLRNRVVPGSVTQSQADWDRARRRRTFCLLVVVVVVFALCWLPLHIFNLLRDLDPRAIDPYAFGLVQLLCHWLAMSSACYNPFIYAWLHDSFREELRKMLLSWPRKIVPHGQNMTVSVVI
# Method: Competitive binding experiments were performed according to Motulsky and Neubig (Motulsky, A., et al., “Analyzing radioligand binding data,” Curr Protoc Neurosci, Chapter 7, Unit 7.5, 2002). The rat pituitary cell line RC-4B/C (ATCC, Manassas, USA) was grown on 24-well plates which had their bottom coated with polyethyleneimine. The cells were grown to the optimal density of 300-450 thousand per well. […] Plates were incubated for 60 minutes at room temperature. After incubation, the cells were solubilized in 0.1 mol/l solution of NaOH and the radioactivity bound to the cells was counted using a γ-counter. The experiments were performed in duplicate and repeated at least three times. For evaluation of competitive binding experiments, the program Graph Pad Prism Software (San Diego, Calif., USA) was used. A method of nonlinear regression assuming one-site binding was used.
# fasted C57BL/6 mice [4] = experiment: Food intake in fasted mice after ICV administration; assay type: in vivo; conditions: 4 nmol/mouse; for % control: food intake vs saline
# Method: Male C57BL/6 mice (An Lab, Prague 4) were bred in the accredited animal facility in the Institute of Organic Chemistry and Biochemistry, Czech Academy of Sciences, Prague, at the Institute of Molecular Genetics, Prague 4, at the temperature of 22±2° C. with access to food and water ad libitum. The day/night cycle was 12/12 hours (light turned on at 6:00 am). Animals were treated according to the Animal Protection Act (Act No. 246/1992). The males were fed standard chow diet St-1 (Mlýn Kocanda, Praha, Czech Republic) which contained 66% saccharides, 25% proteins and 9% lipids with a caloric value of 3.4 kcal/g.
# The food was withdrawn 17 hours prior to injection of lipidated peptide and free access to water was maintained. The administration of saline, PrRP or lipidated analogs was performed either by SC injection at doses of 1-10 mg/kg (volume 0.2 ml/mouse), or by ICV using infusion pump (cannulae were inserted into the third brain ventricle 4 days before the experiment following the procedure of Maixnerová et al. (Maixnerová et al., 2011)). The single dose of peptide was 4 nmol/mouse (5 μl/mouse).
# Fifteen minutes after the lipidated peptide administration, the mice were given pre-weighed food. The food was then weighed every 30 minutes for 5-10 hours. The administration of every dose was performed at least twice and one group of mice consisted of at least 6 mice. The results were presented as % of food intake as compared with the control group injected with saline.
# Statistical evaluation was performed using program Graph-Pad Prism Software (San Diego, Calif., USA), and the one-way ANOVA with a subsequent Dunnettovým post-hoc test. The difference in food intake between mice injected with saline and mice injected with the examined peptide were considered statistically significant at P<0.05.
% of PrRP31 binding [3] [%],Compound,ERK signaling [1],"food intake (fasted C57BL/6 mice [2]; 45 minutes, 10 mg/kg) [g]","% control (fasted C57BL/6 mice [2]; 45 minutes, 10 mg/kg) [%]","food intake (fasted C57BL/6 mice [2]; 300 minutes, 10 mg/kg) [g]","% control (fasted C57BL/6 mice [2]; 300 minutes, 10 mg/kg) [%]",food intake (fasted C57BL/6 mice [4]; 45 minutes) [g],% control (fasted C57BL/6 mice [4]; 45 minutes) [%],food intake (fasted C57BL/6 mice [4]; 300 minutes) [g],% control (fasted C57BL/6 mice [4]; 300 minutes) [%],"food intake (fasted C57BL/6 mice [2]; 45 minutes, 5 mg/kg) [g]","% control (fasted C57BL/6 mice [2]; 45 minutes, 5 mg/kg) [%]","food intake (fasted C57BL/6 mice [2]; 300 minutes, 5 mg/kg) [g]","% control (fasted C57BL/6 mice [2]; 300 minutes, 5 mg/kg) [%]"
132,CCCC[C@H](NC(=O)[C@H](CO)NC(=O)[C@H](Cc1c[nH]cn1)NC(=O)[C@H](CCC(N)=O)NC(=O)[C@H](Cc1c[nH]cn1)NC(=O)[C@H](C)NC(=O)[C@H](CCCNC(=N)N)NC(=O)[C@@H](N)CN)C(=O)N[C@@H](CCC(=O)O)C(=O)N[C@H](C(=O)N[C@@H](CCCNC(=N)N)C(=O)N[C@H](C(=O)N1CCC[C@H]1C(=O)N[C@@H](CC(=O)O)C(=O)N[C@H](C(=O)N[C@@H](CC(N)=O)C(=O)N1CCC[C@H]1C(=O)N[C@@H](C)C(=O)N[C@@H](Cc1c[nH]c2ccccc12)C(=O)N[C@@H](Cc1ccc(O)cc1)C(=O)N[C@H](C(=O)NCC(=O)N[C@@H](CCCNC(=N)N)C(=O)NCC(=O)N[C@H](C(=O)N[C@@H](CCCNC(=N)N)C(=O)N1CCC[C@H]1C(=O)N[C@H](C(=O)NCC(=O)N[C@@H](CCCNC(=N)N)C(=O)N[C@@H](Cc1ccccc1)C(N)=O)C(C)C)[C@@H](C)CC)[C@@H](C)O)[C@@H](C)CC)[C@@H](C)O)[C@@H](C)O [Analog 1] (H-[Dap]RAHQHS[Nle]ETRTPDINPAWYTGRGIRPVGRF-NH2),agonist,0.38,117,1.05,97,0.39,70,0.71,53,,,,
440,CCCCCCCCCCCC(=O)NC[C@H](N)C(=O)N[C@@H](CCCNC(=N)N)C(=O)N[C@@H](C)C(=O)N[C@@H](Cc1c[nH]cn1)C(=O)N[C@@H](CCC(N)=O)C(=O)N[C@@H](Cc1c[nH]cn1)C(=O)N[C@@H](CO)C(=O)N[C@@H](CCCC)C(=O)N[C@@H](CCC(=O)O)C(=O)N[C@H](C(=O)N[C@@H](CCCNC(=N)N)C(=O)N[C@H](C(=O)N1CCC[C@H]1C(=O)N[C@@H](CC(=O)O)C(=O)N[C@H](C(=O)N[C@@H](CC(N)=O)C(=O)N1CCC[C@H]1C(=O)N[C@@H](C)C(=O)N[C@@H](Cc1c[nH]c2ccccc12)C(=O)N[C@@H](Cc1ccc(O)cc1)C(=O)N[C@H](C(=O)NCC(=O)N[C@@H](CCCNC(=N)N)C(=O)NCC(=O)N[C@H](C(=O)N[C@@H](CCCNC(=N)N)C(=O)N1CCC[C@H]1C(=O)N[C@H](C(=O)NCC(=O)N[C@@H](CCCNC(=N)N)C(=O)N[C@@H](Cc1ccccc1)C(N)=O)C(C)C)[C@@H](C)CC)[C@@H](C)O)[C@@H](C)CC)[C@@H](C)O)[C@@H](C)O [Analog 3] (H-[Dap](Lauroyl)RAHQHS[Nle]ETRTPDINPAWYTGRGIRPVGRF-NH2),agonist,,,,,,,,,0.12,50,0.61,60
8,CCCC[C@H](NC(=O)[C@H](CO)NC(=O)[C@H](Cc1c[nH]cn1)NC(=O)[C@H](CCC(N)=O)NC(=O)[C@H](Cc1c[nH]cn1)NC(=O)[C@H](C)NC(=O)[C@H](CCCNC(=N)N)NC(=O)[C@@H](N)CN)C(=O)N[C@@H](CCC(=O)O)C(=O)N[C@H](C(=O)N[C@@H](CCCNC(=N)N)C(=O)N[C@H](C(=O)N1CCC[C@H]1C(=O)N[C@@H](CC(=O)O)C(=O)N[C@H](C(=O)N[C@@H](CC(N)=O)C(=O)N1CCC[C@H]1C(=O)N[C@@H](C)C(=O)N[C@@H](Cc1c[nH]c2ccccc12)C(=O)N[C@@H](Cc1ccc(O)cc1)C(=O)N[C@H](C(=O)NCC(=O)N[C@@H](CCCNC(=N)N)C(=O)NCC(=O)N[C@H](C(=O)N[C@@H](CCCNC(=N)N)C(=O)N1CCC[C@H]1C(=O)N[C@H](C(=O)NCC(=O)N[C@@H](CCCNC(=N)N)C(=O)N[C@@H](Cc1cccc2ccccc12)C(N)=O)C(C)C)[C@@H](C)CC)[C@@H](C)O)[C@@H](C)CC)[C@@H](C)O)[C@@H](C)O [Analog 7] (H-[Dap]RAHQHS[Nle]ETRTPDINPAWYTGRGIRPVGR[1Nal]-NH2),agonist,0.16,49,0.88,81,,,,,,,,
